Data on 32 molecules can be found in US10118930B2, “Piperidinylpyrazolopyrimidinones and their use” (BAYER PHARMA AKTIENGESELLSCHAFT, priority 2015, dated 2018).

Structures can show the parent of a compound that is named as a salt.

For the assay, the system named is clot lysis (fibrinolysis) in diluted human citrated plasma, tPA-induced. The experiment in a line: Plasma-based clot lysis assay (5%). The assay is classed as biochemical. The settings on record: human citrated platelet-poor plasma 5%, fibrinogen 3 μM, CaCl2 10 mM, tPA 0.2 nM, 37° C., OD at 405 nm. The method, then: B-2. Plasma-based Clot Lysis Assay (5%)
The clot-lysis test system configures the kinetics of clot formation and degradation in vitro and allows quantifying modulation of the process by selected test compounds.
The test compounds were dissolved in 1% acetic acid and further complemented with an equal volume of DMSO. The resulting stock solutions were serially diluted in 0.5% acetic acid/50% DMSO. 1 μL aliquots of these solutions were placed into 384 well microplates (Greiner, black, transparent bottom), followed by 30 μL of diluted human citrated plasma (platelet-poor, final concentration: 5%; supplemented with fibrinogen, final concentration: 3 μM; dilution buffer: 20 mM HEPES, 150 mM NaCl, 0.01% Brij (pH 7)). The reactions were started by addition of 20 μL of CaCl2 (final concentration: 10 mM), and tPA (tissue plasminogen activator, final concentration: 0.2 nM) in dilution buffer, followed by an additional volume of 20 μL dilution buffer for improved mixing. The reactions were incubated at 37° C. […] IC50 values were determined by comparing the resulting time courses with the time course of a blank control reaction.

Take `Cc1cc(F)ccc1NC(=O)c1cnn2c(C3CCNCC3)cc(=O)[nH]c12` [Example 81, N-(4-fluoro-2-methylphenyl)-5-oxo-7-(piperidin-4-yl)-4,5-dihydropyrazolo[1,5-a]pyrimidine-3-carboxamide]: the IC50 stood at 81 nM.

As for `Cc1ccc(NC(=O)c2cnn3c(C4CCNCC4)cc(=O)[nH]c23)cc1C` [Example 85, N-(3,4-dimethylphenyl)-5-oxo-7-(piperidin-4-yl)-4,5-dihydropyrazolo[1,5-a]pyrimidine-3-carboxamide hydrochloride], the half-maximal inhibitory concentration (IC50) came to 32 nM. For `Cc1ccccc1CNC(=O)c1cnn2c(C3CCNCC3)cc(=O)[nH]c12` [Example 86, N-(2-methylbenzyl)-5-oxo-7-(piperidin-4-yl)-4,5-dihydropyrazolo[1,5-a]pyrimidine-3-carboxamide hydrochloride] the value was 17 nM. `O=C(Nc1cccc(Cl)c1F)c1cnn2c(C3CCNCC3)cc(=O)[nH]c12` [Example 87, N-(3-chloro-2-fluorophenyl)-5-oxo-7-(piperidin-4-yl)-4,5-dihydropyrazolo[1,5-a]pyrimidine-3-carboxamide hydrochloride] returned a concentration for half-maximal inhibition (IC50) of 30 nM. For `COCCCNC(=O)c1cnn2c(C3CCNCC3)cc(=O)[nH]c12` [Example 88, N-(3-methoxypropyl)-5-oxo-7-(piperidin-4-yl)-4,5-dihydropyrazolo[1,5-a]pyrimidine-3-carboxamide hydrochloride] the value was 49 nM; for `NC(=O)CCNC(=O)c1cnn2c(C3CCNCC3)cc(=O)[nH]c12` [Example 89, N-(3-amino-3-oxopropyl)-5-oxo-7-(piperidin-4-yl)-4,5-dihydropyrazolo[1,5-a]pyrimidine-3-carboxamide hydrochloride], 140 nM. For `O=C(NCCN1CCOC1=O)c1cnn2c(C3CCNCC3)cc(=O)[nH]c12` [Example 92, 5-oxo-N-[2-(2-oxo-1,3-oxazolidin-3-yl)ethyl]-7-(piperidin-4-yl)-4,5-dihydropyrazolo[1,5-a]pyrimidine-3-carboxamide hydrochloride] the value was 33 nM. For `CC(C)(C)CNC(=O)c1cnn2c(C3CCNCC3)cc(=O)[nH]c12` [Example 93, N-(2,2-dimethylpropyl)-5-oxo-7-(piperidin-4-yl)-4,5-dihydropyrazolo[1,5-a]pyrimidine-3-carboxamide hydrochloride] the value was 22 nM.

In the case of `O=C(NC1(Cc2ccccc2)CC1)c1cnn2c(C3CCNCC3)cc(=O)[nH]c12` [Example 94, N-(1-benzylcyclopropyl)-5-oxo-7-(piperidin-4-yl)-4,5-dihydropyrazolo[1,5-a]pyrimidine-3-carboxamide hydrochloride], the IC50 was determined as 30 nM. With `O=C(c1cnn2c(C3CCNCC3)cc(=O)[nH]c12)N1CCC(O)CC1` [Example 95, 3-[(4-hydroxypiperidin-1-yl)carbonyl]-7-(piperidin-4-yl)pyrazolo[1,5-a]pyrimidin-5(4H)-one hydrochloride] the figure was 43 nM; with `CCCN(CC)C(=O)c1cnn2c(C3CCNCC3)cc(=O)[nH]c12` [Example 96, N-ethyl-5-oxo-7-(piperidin-4-yl)-N-propyl-4,5-dihydropyrazolo[1,5-a]pyrimidine-3-carboxamide hydrochloride], 33 nM. For `CN(Cc1ccccc1)C(=O)c1cnn2c(C3CCNCC3)cc(=O)[nH]c12` [Example 97, N-benzyl-N-methyl-5-oxo-7-(piperidin-4-yl)-4,5-dihydropyrazolo[1,5-a]pyrimidine-3-carboxamide hydrochloride] the value was 24 nM; for `CCC(=O)N1CCN(C(=O)c2cnn3c(C4CCNCC4)cc(=O)[nH]c23)CC1` [Example 98, 7-(piperidin-4-yl)-3-[(4-propanoylpiperazin-1-yl)carbonyl]pyrazolo[1,5-a]pyrimidin-5(4H)-one hydrochloride], 90 nM; for `O=C1CCN(C(=O)c2cnn3c(C4CCNCC4)cc(=O)[nH]c23)CCN1` [Example 100, 3-[(5-oxo-1,4-diazepan-1-yl)carbonyl]-7-(piperidin-4-yl)pyrazolo[1,5-a]pyrimidin-5(4H)-one hydrochloride], 110 nM. `CN(CC(F)(F)F)C(=O)c1cnn2c(C3CCNCC3)cc(=O)[nH]c12` [Example 103, N-methyl-5-oxo-7-(piperidin-4-yl)-N-(2,2,2-trifluoroethyl)-4,5-dihydropyrazolo[1,5-a]pyrimidine-3-carboxamide hydrochloride]: the IC50 was 35 nM. Regarding `CC1CCCN(C(=O)c2cnn3c(C4CCNCC4)cc(=O)[nH]c23)C1C` (centres unmarked) [Example 104, 3-[(2,3-dimethylpiperidin-1-yl)carbonyl]-7-(piperidin-4-yl)pyrazolo[1,5-a]pyrimidin-5(4H)-one hydrochloride], the IC50 came out at 31 nM.

`COCC(C)(C)c1noc(-c2cnn3c(C4CCNCC4)cc(=O)[nH]c23)n1` [Example 105, 3-[3-(1-methoxy-2-methylpropan-2-yl)-1,2,4-oxadiazol-5-yl]-7-(piperidin-4-yl)pyrazolo[1,5-a]pyrimidin-5(4H)-one] yielded an IC50 of 95 nM. The molecule `O=c1cc(C2CCNCC2)n2ncc(-c3nc(Cc4ccccc4)no3)c2[nH]1` [Example 106, 3-(3-benzyl-1,2,4-oxadiazol-5-yl)-7-(piperidin-4-yl)pyrazolo[1,5-a]pyrimidin-5(4H)-one] registered an IC50 of 63 nM. With `CCc1noc(-c2cnn3c(C4CCNCC4)cc(=O)[nH]c23)n1` [Example 107, 3-(3-ethyl-1,2,4-oxadiazol-5-yl)-7-(piperidin-4-yl)pyrazolo[1,5-a]pyrimidin-5(4H)-one], it took 49 nM to reach half-maximal inhibition (IC50). For `O=c1cc(C2CCNCC2)n2ncc(-c3nc(C4CCC4)no3)c2[nH]1` [Example 108, 3-(3-cyclobutyl-1,2,4-oxadiazol-5-yl)-7-(piperidin-4-yl)pyrazolo[1,5-a]pyrimidin-5(4H)-one], the IC50 came to 76 nM.

In turn, `O=c1cc(C2CCNCC2)n2ncc(-c3nc(-c4ccc(F)s4)no3)c2[nH]1` [Example 109, 3-[3-(5-fluorothiophen-2-yl)-1,2,4-oxadiazol-5-yl]-7-(piperidin-4-yl)pyrazolo[1,5-a]pyrimidin-5(4H)-one] showed an IC50 of 120 nM. With `O=c1cc(C2CCNCC2)n2ncc(-c3nc(-c4ccco4)no3)c2[nH]1` [Example 110] the figure was 82 nM. As to `O=c1cc(C2CCNCC2)n2ncc(-c3nc(-c4cccc(F)c4)no3)c2[nH]1` [Example 112, 3-[3-(3-Fluorophenyl)-1,2,4-oxadiazol-5-yl]-7-(piperidin-4-yl)pyrazolo[1,5-a]pyrimidin-5 (4H)-one hydrochloride], the IC50 amounted to 29 nM. With `O=c1cc(C2CCNCC2)n2ncc(-c3nc(-c4ccc(C(F)(F)F)cc4)no3)c2[nH]1` [Example 113, 7-(Piperidin-4-yl)-3-{3-[4-(trifluoromethyl)phenyl]-1,2,4-oxadiazol-5-yl}pyrazolo[1,5-a]pyrimidin-5(4H)-one hydrochloride] the figure was 44 nM; with `O=c1cc(C2CCNCC2)n2ncc(-c3nc(-c4ccc(OC(F)(F)F)cc4)no3)c2[nH]1` [Example 115, 7-(Piperidin-4-yl)-3-{3-[4-(trifluoromethoxy)phenyl]-1,2,4-oxadiazol-5-yl}pyrazolo[1,5-a]pyrimidin-5(4H)-one hydrochloride], 27 nM. With `COc1cc(-c2noc(-c3cnn4c(C5CCNCC5)cc(=O)[nH]c34)n2)ccc1C` [Example 116, 3-[3-(3-Methoxy-4-methylphenyl)-1,2,4-oxadiazol-5-yl]-7-(piperidin-4-yl)pyrazolo[1,5-a]pyrimidin-5(4H)-one hydrochloride] the figure was 39 nM.

With `Cc1ccc(-c2noc(-c3cnn4c(C5CCNCC5)cc(=O)[nH]c34)n2)cc1F` [Example 117, 3-[3-(3-Fluoro-4-methylphenyl)-1,2,4-oxadiazol-5-yl]-7-(piperidin-4-yl)pyrazolo[1,5-a]pyrimidin-5(4H)-one hydrochloride], inhibition was half-maximal at 38 nM (IC50).

`Cc1ccccc1-c1noc(-c2cnn3c(C4CCNCC4)cc(=O)[nH]c23)n1` [Example 119, 3-[3-(2-Methylphenyl)-1,2,4-oxadiazol-5-yl]-7-(piperidin-4-yl)pyrazolo[1,5-a]pyrimidin-5 (4H)-one hydrochloride] returned an IC50 of 79 nM. With `Cc1cccc(-c2noc(-c3cnn4c(C5CCNCC5)cc(=O)[nH]c34)n2)c1` [Example 120, 3-[3-(3-Methylphenyl)-1,2,4-oxadiazol-5-yl]-7-(piperidin-4-yl)pyrazolo[1,5-a]pyrimidin-5 (4H)-one hydrochloride] the figure was 35 nM; with `COc1ccc(-c2noc(-c3cnn4c(C5CCNCC5)cc(=O)[nH]c34)n2)cc1F` [Example 122, 3-[3-(3-Fluoro-4-methoxyphenyl)-1,2,4-oxadiazol-5-yl]-7-(piperidin-4-yl)pyrazolo[1,5-a]pyrimidin-5(4H)-one hydrochloride], 35 nM; with `Cc1ccc(-c2noc(-c3cnn4c(C5CCNCC5)cc(=O)[nH]c34)n2)cc1Cl` [Example 123, 3-[3-(3-Chloro-4-methylphenyl)-1,2,4-oxadiazol-5-yl]-7-(piperidin-4-yl)pyrazolo[1,5-a]pyrimidin-5(4H)-one hydrochloride], 47 nM. The molecule `O=c1cc(C2CCNCC2)n2ncc(-c3nc(-c4cccc(OC(F)(F)F)c4)no3)c2[nH]1` [Example 124, 7-(Piperidin-4-yl)-3-{3-[3-(trifluoromethoxy)phenyl]-1,2,4-oxadiazol-5-yl}pyrazolo[1,5-a]pyrimidin-5(4H)-one hydrochloride] returned an IC50 of 38 nM.
